Results published in ChEMBL document CHEMBL2331489, “Novel cinnoline-based inhibitors of LRRK2 kinase activity” (Bioorg Med Chem Lett, 2013).

How the values were obtained:
[1] = target: Serine/threonine-protein kinase PLK2 (Homo sapiens) (UniProt Q9NYY3); test: Inhibition of PLK2 (unknown origin) at 10 uM relative to control
[2] = target: Serine/threonine-protein kinase PAK 4 (Homo sapiens) (UniProt O96013); test: Inhibition of PAK4 (unknown origin) at 10 uM relative to control
[3] = target: RAC-alpha serine/threonine-protein kinase (Homo sapiens) (UniProt P31749); test: Inhibition of AKT1 (unknown origin) at 10 uM relative to control
[4] = target: Tyrosine-protein kinase Lck (Homo sapiens) (UniProt P06239); test: Inhibition of LCK (unknown origin) at 10 uM relative to control
[5] = target: PI3-kinase p110-alpha/p85-alpha (Homo sapiens) (UniProt P27986+P42336); test: Inhibition of PIK3CA/PIK3R1 (unknown origin) at 10 uM relative to control; format: protein-complex assay
[6] = target: T1, Dual specificity protein kinase TTK (Homo sapiens) (UniProt P33981); test: Inhibition of TTK (unknown origin) at 10 uM relative to control
T1 sequence (whole entry): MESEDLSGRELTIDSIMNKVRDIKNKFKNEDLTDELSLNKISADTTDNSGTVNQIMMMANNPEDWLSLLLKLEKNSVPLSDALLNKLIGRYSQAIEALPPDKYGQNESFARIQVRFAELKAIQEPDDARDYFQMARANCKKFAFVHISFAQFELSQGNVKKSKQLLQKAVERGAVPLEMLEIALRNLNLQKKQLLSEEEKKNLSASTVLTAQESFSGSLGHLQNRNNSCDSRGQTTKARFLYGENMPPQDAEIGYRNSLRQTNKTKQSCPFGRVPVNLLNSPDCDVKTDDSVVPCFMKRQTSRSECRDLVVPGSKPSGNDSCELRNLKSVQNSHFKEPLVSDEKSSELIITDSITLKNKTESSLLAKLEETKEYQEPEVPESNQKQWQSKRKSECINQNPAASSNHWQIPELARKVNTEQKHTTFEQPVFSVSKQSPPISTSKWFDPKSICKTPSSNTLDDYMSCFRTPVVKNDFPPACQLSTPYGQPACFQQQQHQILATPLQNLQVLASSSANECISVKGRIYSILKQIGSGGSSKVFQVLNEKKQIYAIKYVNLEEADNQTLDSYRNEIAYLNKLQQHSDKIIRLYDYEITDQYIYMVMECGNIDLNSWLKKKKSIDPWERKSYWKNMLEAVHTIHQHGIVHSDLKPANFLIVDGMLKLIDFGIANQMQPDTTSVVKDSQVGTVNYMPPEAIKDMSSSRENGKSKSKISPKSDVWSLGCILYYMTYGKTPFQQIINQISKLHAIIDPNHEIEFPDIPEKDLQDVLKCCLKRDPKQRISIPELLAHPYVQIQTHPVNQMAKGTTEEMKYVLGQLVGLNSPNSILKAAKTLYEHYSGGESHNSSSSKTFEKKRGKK

[7] = target: Cyclin-dependent kinase 1/cyclin B1 (Homo sapiens) (UniProt P06493+P14635); test: Inhibition of CDK1/cyclin B (unknown origin) at 10 uM relative to control; format: protein-complex assay
[8] = target: Receptor tyrosine-protein kinase erbB-4 (Homo sapiens) (UniProt Q15303); test: Inhibition of ERBB4 (unknown origin) at 10 uM relative to control
[9] = target: Platelet-derived growth factor receptor alpha (Homo sapiens, UniProt P16234); test: Inhibition of PDGFRalpha (unknown origin) at 10 uM relative to control
[10] = target: Dual specificity tyrosine-phosphorylation-regulated kinase 1B (Homo sapiens) (UniProt Q9Y463); test: Inhibition of DYRK1B (unknown origin) at 10 uM relative to control
[11] = target: Serine/threonine-protein kinase 16 (Homo sapiens) (UniProt O75716); test: Inhibition of STK16 (unknown origin) at 10 uM relative to control
[12] = target: Tyrosine-protein kinase JAK1 (Homo sapiens) (UniProt P23458); test: Inhibition of JAK1 (unknown origin) at 10 uM relative to control
[13] = target: T2, Mitogen-activated protein kinase kinase kinase 7 (Homo sapiens) (UniProt O43318); test: Inhibition of MAP3K7 (unknown origin) at 10 uM relative to control
T2 sequence (whole entry): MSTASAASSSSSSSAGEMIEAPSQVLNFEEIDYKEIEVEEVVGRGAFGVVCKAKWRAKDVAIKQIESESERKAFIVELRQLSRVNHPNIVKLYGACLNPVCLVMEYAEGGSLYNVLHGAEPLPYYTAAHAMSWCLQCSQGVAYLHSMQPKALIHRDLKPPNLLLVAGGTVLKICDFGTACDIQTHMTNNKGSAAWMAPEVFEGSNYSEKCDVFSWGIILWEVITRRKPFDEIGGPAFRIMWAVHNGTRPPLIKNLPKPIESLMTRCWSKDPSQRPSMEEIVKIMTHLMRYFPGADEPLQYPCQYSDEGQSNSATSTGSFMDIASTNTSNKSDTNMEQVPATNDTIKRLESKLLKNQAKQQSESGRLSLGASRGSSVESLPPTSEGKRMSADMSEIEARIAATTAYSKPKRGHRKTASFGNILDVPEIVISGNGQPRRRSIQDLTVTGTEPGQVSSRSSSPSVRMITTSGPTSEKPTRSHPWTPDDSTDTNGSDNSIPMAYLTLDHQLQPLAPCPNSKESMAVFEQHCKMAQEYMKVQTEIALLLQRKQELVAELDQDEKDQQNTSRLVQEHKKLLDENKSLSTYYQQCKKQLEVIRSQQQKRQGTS

[14] = target: T3, Aurora kinase A (Homo sapiens) (UniProt O14965); test: Inhibition of Aurora A (unknown origin) at 10 uM relative to control
T3 sequence (whole entry): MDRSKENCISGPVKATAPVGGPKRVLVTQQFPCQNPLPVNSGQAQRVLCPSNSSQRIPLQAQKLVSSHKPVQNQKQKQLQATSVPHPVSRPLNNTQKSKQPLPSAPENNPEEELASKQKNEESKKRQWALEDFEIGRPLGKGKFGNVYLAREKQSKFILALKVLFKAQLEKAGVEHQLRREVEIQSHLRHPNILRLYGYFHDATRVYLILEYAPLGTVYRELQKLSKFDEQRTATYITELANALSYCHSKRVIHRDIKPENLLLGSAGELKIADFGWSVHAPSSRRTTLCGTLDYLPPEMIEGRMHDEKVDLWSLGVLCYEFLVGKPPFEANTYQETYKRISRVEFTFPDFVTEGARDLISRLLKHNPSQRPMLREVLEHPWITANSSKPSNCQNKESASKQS

[15] = target: Receptor-interacting serine/threonine-protein kinase 2 (Homo sapiens) (UniProt O43353); test: Inhibition of RIPK2 (unknown origin) at 10 uM relative to control
[16] = target: Serine/threonine-protein kinase PLK1 (Homo sapiens) (UniProt P53350); test: Inhibition of PLK1 (unknown origin) at 10 uM relative to control
[17] = target: Cyclin-dependent kinase 5/CDK5 activator 1 (Homo sapiens) (UniProt Q00535+Q15078); test: Inhibition of CDK5/P25 (unknown origin) at 10 uM relative to control; format: protein-complex assay
Chain of Cyclin-dependent kinase 5/CDK5 activator 1 (Homo sapiens) (Q00535 whole entry): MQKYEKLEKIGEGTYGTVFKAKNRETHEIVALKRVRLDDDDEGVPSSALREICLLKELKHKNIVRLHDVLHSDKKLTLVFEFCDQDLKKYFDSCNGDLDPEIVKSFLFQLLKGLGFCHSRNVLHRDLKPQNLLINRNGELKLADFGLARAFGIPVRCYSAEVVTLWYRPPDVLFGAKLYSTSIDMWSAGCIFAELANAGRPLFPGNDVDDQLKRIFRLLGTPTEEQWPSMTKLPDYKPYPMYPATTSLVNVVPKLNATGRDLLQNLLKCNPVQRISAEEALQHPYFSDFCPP
Chain of Cyclin-dependent kinase 5/CDK5 activator 1 (Homo sapiens) (Q15078 99-307 partner limits assumed): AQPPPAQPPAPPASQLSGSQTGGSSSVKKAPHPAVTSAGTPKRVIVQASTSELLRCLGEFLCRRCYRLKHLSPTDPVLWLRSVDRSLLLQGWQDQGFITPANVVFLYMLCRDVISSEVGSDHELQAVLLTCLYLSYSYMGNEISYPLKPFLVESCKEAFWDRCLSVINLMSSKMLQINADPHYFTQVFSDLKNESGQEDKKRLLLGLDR

Chain of Serine/threonine-protein kinase 16 (Homo sapiens) (O75716 whole entry): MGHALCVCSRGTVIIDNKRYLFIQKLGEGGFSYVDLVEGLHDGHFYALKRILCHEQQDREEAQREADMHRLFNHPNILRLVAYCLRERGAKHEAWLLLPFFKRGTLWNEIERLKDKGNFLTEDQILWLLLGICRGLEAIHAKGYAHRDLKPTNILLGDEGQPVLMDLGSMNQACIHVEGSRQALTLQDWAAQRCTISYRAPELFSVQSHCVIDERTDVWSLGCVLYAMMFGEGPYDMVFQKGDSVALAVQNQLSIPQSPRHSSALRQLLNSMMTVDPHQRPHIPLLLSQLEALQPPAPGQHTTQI
Chain of Dual specificity tyrosine-phosphorylation-regulated kinase 1B (Homo sapiens) (Q9Y463 whole entry, looked up): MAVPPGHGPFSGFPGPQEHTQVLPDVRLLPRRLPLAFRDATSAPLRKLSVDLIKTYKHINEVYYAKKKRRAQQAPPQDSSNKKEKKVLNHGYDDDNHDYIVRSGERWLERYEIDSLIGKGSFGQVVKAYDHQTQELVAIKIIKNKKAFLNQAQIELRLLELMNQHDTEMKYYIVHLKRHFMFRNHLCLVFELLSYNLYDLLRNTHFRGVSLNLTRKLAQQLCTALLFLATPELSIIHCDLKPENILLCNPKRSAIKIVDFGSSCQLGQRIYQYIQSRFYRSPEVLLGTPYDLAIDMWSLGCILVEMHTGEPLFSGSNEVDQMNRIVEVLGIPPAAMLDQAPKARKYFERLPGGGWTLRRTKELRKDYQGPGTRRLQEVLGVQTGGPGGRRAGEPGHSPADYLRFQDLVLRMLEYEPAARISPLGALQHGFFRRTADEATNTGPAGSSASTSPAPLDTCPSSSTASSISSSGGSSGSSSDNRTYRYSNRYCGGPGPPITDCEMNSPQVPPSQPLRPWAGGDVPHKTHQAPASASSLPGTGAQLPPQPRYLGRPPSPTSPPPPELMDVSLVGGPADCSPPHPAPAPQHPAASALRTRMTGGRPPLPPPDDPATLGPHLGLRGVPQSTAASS
Chain of Serine/threonine-protein kinase PLK1 (Homo sapiens) (P53350 whole entry): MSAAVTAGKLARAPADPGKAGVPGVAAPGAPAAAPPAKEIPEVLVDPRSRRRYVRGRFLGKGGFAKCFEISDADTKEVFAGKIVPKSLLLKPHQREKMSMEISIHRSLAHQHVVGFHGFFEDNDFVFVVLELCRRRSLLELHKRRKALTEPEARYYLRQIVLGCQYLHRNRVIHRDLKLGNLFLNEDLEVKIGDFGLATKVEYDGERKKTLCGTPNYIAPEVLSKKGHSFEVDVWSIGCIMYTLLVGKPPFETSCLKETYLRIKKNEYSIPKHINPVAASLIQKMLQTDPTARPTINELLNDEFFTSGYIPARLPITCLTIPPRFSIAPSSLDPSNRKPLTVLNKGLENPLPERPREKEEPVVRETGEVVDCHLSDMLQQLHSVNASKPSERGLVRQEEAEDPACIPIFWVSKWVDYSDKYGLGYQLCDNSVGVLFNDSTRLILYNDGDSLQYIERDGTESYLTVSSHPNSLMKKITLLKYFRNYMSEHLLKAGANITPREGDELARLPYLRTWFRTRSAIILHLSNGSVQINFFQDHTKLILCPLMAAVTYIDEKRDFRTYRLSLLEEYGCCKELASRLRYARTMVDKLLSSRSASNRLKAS
Chain of Tyrosine-protein kinase Lck (Homo sapiens) (P06239 2-509 limits assumed): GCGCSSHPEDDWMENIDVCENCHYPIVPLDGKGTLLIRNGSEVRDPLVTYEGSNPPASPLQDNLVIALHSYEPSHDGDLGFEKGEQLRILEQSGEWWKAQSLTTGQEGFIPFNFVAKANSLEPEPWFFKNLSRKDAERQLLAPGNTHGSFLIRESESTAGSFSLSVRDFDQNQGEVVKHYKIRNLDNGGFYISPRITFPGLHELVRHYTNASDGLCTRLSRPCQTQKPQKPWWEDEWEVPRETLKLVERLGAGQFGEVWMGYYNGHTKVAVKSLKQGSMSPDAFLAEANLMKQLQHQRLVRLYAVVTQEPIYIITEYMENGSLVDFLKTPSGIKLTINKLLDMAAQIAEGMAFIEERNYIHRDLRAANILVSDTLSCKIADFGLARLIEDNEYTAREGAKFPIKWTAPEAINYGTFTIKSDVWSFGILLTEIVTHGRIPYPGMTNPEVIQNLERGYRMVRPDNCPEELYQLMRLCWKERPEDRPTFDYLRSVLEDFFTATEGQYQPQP
Chain of Tyrosine-protein kinase JAK1 (Homo sapiens) (P23458 whole entry): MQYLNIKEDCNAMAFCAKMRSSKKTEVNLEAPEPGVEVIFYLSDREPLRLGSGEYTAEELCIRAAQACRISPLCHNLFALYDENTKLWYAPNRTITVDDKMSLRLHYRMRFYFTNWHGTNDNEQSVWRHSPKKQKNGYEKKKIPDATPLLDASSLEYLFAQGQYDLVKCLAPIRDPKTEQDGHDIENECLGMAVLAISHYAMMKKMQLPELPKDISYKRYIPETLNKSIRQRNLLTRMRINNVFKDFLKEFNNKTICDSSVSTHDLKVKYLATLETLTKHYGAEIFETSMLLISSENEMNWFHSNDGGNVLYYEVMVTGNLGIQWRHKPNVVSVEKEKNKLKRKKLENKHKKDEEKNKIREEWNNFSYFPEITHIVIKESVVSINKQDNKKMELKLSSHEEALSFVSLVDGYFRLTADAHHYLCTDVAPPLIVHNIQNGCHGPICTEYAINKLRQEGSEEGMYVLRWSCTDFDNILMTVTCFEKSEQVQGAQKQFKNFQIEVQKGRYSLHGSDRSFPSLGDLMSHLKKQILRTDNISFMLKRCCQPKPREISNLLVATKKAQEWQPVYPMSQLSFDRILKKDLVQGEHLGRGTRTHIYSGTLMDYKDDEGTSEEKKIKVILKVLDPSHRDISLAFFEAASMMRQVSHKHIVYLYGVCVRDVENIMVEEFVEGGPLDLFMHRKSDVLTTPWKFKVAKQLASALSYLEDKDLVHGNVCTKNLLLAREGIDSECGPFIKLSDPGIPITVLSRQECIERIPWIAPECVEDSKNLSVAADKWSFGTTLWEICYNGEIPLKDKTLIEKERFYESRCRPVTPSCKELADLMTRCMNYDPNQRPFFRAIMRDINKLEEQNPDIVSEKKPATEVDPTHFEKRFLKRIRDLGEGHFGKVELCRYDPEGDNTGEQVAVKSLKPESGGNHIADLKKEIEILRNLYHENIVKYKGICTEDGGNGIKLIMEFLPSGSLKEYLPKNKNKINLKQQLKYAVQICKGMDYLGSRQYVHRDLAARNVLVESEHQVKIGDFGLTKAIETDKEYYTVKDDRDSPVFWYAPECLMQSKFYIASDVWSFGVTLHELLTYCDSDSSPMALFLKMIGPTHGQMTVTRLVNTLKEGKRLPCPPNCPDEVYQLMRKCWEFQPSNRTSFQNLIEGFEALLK
Chain of Receptor-interacting serine/threonine-protein kinase 2 (Homo sapiens) (O43353 whole entry): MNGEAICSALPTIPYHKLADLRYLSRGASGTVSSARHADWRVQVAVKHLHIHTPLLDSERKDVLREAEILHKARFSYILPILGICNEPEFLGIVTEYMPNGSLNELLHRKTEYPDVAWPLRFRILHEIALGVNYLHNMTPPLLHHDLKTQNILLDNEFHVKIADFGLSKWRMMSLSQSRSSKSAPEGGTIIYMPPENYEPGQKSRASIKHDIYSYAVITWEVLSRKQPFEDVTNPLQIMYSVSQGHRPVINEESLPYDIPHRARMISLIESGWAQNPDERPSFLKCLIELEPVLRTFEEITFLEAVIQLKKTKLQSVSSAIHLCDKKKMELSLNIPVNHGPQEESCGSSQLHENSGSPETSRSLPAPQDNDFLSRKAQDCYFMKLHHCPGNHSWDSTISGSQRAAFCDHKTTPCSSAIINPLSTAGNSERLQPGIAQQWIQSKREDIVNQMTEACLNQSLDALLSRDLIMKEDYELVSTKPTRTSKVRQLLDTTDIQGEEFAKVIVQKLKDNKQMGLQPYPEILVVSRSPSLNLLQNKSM
Chain of Serine/threonine-protein kinase PAK 4 (Homo sapiens) (O96013 whole entry, looked up): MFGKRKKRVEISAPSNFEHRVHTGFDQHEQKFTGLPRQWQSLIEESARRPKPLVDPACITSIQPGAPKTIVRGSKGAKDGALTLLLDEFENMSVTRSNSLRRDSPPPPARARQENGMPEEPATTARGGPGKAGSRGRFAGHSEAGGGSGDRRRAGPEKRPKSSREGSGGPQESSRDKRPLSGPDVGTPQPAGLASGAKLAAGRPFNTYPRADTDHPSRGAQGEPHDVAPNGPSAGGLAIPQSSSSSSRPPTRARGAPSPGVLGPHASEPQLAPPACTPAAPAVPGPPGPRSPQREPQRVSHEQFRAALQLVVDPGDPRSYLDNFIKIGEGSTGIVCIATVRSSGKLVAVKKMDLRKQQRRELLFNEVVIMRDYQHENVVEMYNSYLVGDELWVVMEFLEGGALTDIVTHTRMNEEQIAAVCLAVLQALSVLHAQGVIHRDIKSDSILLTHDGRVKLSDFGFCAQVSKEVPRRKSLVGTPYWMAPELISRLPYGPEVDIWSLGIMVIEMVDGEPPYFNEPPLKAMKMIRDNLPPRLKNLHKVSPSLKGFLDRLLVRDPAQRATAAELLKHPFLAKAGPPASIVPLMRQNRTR

| Structure (SMILES) | inhibition [1] [%] | inhibition [2] [%] | inhibition [3] [%] | inhibition [4] [%] | inhibition [5] [%] | inhibition [6] [%] | inhibition [7] [%] | inhibition [8] [%] | inhibition [9] [%] | inhibition [10] [%] | inhibition [11] [%] | inhibition [12] [%] | inhibition [13] [%] | inhibition [14] [%] | inhibition [15] [%] | inhibition [16] [%] | inhibition [17] [%] |
| --- | --- | --- | --- | --- | --- | --- | --- | --- | --- | --- | --- | --- | --- | --- | --- | --- | --- |
| CC(C)Nc1c(C(N)=O)nnc2cc(N3CCOCC3)ccc12 | 6 | 59 | 1 | 75 | 15 | 67 | 3 | 15 | 98 | 7 | 40 | 72 | 67 | 81 | 44 | 3 | 3 |
| CS(=O)(=O)c1ccc(-c2ccc3c(NC4CCC4)c(C(N)=O)nnc3c2)cc1 | 11 | 43 | 5 | 35 | 2 | 60 | 7 | 4 | 94 | 20 | 44 | 55 | 66 | 34 | 15 | 14 | -1 |
| CC(C)Nc1c(C(N)=O)nnc2ccc(-c3cn[nH]c3)cc12 | 80 | 81 | 32 | 94 | 95 | 97 | 102 | 38 | 101 | 97 | 84 | 90 | 97 | 100 | 98 | 45 | 97 |
| CC(C)Nc1c(C(N)=O)nnc2cc(-c3ccncc3)ccc12 | 30 | 82 | 13 | 85 | 70 | 94 | 40 | 22 | – | 44 | 85 | 96 | 102 | 90 | 76 | 33 | 32 |
| C[C@@H](Nc1c(C(N)=O)nnc2cc(-c3ccc(S(C)(=O)=O)cc3)ccc12)C1CC1 | 17 | 33 | 4 | 81 | 10 | 35 | -3 | 12 | 93 | 3 | – | 74 | 39 | 68 | 28 | 1 | – |
| CC(C)Nc1c(C(N)=O)nnc2ccc(-c3ccncc3)cc12 | 51 | 58 | 25 | 90 | 94 | 93 | 102 | 21 | 100 | 97 | 84 | 33 | 84 | 83 | 91 | 25 | 82 |
| CC(C)Nc1c(C(N)=O)cnc2cc(-c3ccc(S(C)(=O)=O)cc3)ccc12 | 7 | 64 | 5 | 31 | -2 | 50 | 1 | 11 | 98 | 9 | 39 | 77 | 89 | 60 | 52 | 1 | 2 |
